This passage reports IC50 and melting point results from patent publication US6855843B2, “Inhibitors of α4 mediated cell adhesion” (Tanabe Seiyaku Co., Ltd., priority 1998, dated 2005).

Series [1] has as its target T1, α4β7 (adhesion of RPMI cells to CS-1) (Homo sapiens, UniProt P13612+P26010).
T1 construct: endogenous in cells
T1 sequence (P13612 34-1032): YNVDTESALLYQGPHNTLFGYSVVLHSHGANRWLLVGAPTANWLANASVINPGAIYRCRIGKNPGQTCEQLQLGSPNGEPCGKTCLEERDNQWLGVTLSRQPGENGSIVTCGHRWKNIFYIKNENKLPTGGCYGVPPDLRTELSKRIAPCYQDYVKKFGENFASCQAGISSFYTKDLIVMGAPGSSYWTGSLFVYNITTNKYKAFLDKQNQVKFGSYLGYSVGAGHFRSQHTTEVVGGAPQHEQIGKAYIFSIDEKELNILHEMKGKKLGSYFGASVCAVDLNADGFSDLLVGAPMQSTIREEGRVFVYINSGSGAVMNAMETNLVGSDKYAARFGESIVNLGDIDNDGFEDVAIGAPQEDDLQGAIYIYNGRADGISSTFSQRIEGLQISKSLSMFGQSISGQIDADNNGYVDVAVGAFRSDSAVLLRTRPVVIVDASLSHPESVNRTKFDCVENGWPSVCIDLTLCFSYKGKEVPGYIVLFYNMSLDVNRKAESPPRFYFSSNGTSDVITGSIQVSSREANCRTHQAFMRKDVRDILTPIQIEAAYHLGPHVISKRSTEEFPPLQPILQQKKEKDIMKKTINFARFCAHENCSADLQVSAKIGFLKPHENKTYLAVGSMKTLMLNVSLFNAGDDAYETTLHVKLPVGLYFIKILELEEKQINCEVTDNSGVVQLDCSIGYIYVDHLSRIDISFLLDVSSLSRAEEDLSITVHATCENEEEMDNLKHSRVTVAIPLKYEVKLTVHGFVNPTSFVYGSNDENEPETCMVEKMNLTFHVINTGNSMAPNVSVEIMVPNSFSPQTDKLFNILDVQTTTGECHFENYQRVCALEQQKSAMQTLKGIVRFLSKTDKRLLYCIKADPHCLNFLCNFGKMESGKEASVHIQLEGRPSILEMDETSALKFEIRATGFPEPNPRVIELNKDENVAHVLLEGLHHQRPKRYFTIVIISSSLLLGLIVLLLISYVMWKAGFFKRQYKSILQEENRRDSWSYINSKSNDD
T1 sequence (P26010 20-798): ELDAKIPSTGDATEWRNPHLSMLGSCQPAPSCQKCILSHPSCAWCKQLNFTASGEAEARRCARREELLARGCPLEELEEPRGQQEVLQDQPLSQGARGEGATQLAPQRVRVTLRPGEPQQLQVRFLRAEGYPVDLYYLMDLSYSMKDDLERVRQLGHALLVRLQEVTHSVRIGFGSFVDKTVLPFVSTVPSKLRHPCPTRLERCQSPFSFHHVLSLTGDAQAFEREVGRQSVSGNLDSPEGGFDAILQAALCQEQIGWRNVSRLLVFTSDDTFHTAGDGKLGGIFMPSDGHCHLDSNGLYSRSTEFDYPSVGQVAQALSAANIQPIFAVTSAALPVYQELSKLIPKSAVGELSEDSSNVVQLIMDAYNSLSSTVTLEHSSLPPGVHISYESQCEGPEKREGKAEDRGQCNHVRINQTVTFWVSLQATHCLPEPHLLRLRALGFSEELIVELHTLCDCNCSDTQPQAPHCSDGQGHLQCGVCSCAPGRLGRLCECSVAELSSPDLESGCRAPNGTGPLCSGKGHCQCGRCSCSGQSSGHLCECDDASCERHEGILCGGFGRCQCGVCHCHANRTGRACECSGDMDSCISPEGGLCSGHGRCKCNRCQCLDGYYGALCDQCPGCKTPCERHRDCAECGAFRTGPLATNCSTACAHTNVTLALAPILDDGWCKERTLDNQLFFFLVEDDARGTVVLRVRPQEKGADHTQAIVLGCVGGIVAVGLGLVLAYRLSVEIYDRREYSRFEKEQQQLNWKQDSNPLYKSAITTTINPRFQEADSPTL
Description: RPMI-CS-1 cell adhesion assay. Conditions: adhesion of RPMI B-cell line (expresses α4β7) to CS-1 peptide coated microwells; read-out: RPMI-CS-1 IC50 value range. The format is cell-based.

Where only a bound is given, the exact number is not on record here.

In the case of `COCCOc1ccc2c(c1-c1ccc(C[C@H](NC(=O)c3c(Cl)cccc3Cl)C(=O)O)cc1)OCO2` [Example 233, N-(2,6-Dichlorobenzoyl)-4-[2,3-methylenedioxy-6-(2-methoxyethoxy)phenyl]-L-phenylalanine], the melting point (usually the temperature, or range, at which the solid turns liquid) was 167 to 168 °C. The IC50 (usually the point on the concentration scale where inhibition reaches its midpoint) in series [1] lay within 300 to 1000 nM.
Taken in the same sequence, the figures for `COc1cc(NC(=O)Nc2ccccc2C)cc(OC)c1-c1ccc(C[C@H](NC(=O)c2c(Cl)cccc2Cl)C(=O)O)cc1` [Example 161, N-(2,6-Dichlorobenzoyl)-4-[4-[3-(2-methylphenyl)ureido]-2,6-dimethoxyphenyl]-L-phenylalanine] were 194 to 195 °C and less than 300 nM.
Taken in the same sequence, the figures for `CC(=O)c1cc(C[C@H](NC(=O)c2c(Cl)cccc2Cl)C(=O)O)ccc1-c1ccccc1` [Example 72, 3-Acetyl-N-(2,6-dichlorobenzoyl)-4-phenyl-L-phenylalanine] were 109 to 111 °C and 300 to 1000 nM.
As to `COc1cccc(OC)c1-c1ccc(C[C@H](NC(=O)c2c(Cl)cccc2Cl)C(=O)O)s1` [Example 294, N-(2,6-Dichlorobenzoyl)-3-[5-(2,6-dimethoxyphenyl)-2-thienyl]-L-alanine], the melting point is 134 °C (dec.). Also, in series [1], the IC50 is 1000 to 5000 nM.
Taken in the same sequence, the figures for `COc1cc(C(=O)NCCCO)cc(OC)c1-c1ccc(C[C@H](NC(=O)c2c(Cl)cccc2Cl)C(=O)O)cc1` [Example 169] were 222 to 223 °C and less than 300 nM.
Taken in the same sequence, the figures for `COc1ccccc1-c1ccc(C[C@H](NC(=O)c2c(Cl)cccc2Cl)C(=O)O)cc1OC` [Example 75, N-(2,6-Dichlorobenzoyl)-3-methoxy-4-(2-methoxyphenyl)-L-phenylalanine] were 100 to 102 °C and less than 300 nM.
Take `CCCCC(=O)c1cc(C[C@H](NC(=O)c2c(Cl)cccc2Cl)C(=O)O)ccc1-c1ccccc1OC` [Example 338]: the melting point was 117.6 °C. In addition, the IC50 in series [1] is less than 300 nM.
Taken in the same sequence, the figures for `COc1ccc(CN2CCOCC2)c(OC)c1-c1ccc(C[C@H](NC(=O)c2c(Cl)cccc2Cl)C(=O)O)cc1` [Example 319, N-(2,6-Dichlorobenzoyl)-4-[2,6-dimethoxy-3-(morpholinomethyl)phenyl]-L-phenylalanine] were 241 to 242 °C and less than 300 nM.
Taken in the same sequence, the figures for `CNC(=O)Nc1cc(Cl)c(C(=O)N[C@@H](Cc2ccc(-c3c(OC)cccc3OC)cc2)C(=O)O)c(Cl)c1` [Example 203] were 110 to 112 °C and less than 300 nM.
Taken in the same sequence, the figures for `CON=C(C)c1cc(C[C@H](NC(=O)c2c(Cl)cccc2Cl)C(=O)O)ccc1-c1ccccc1OC` [Example 352, N-(2,6-Dichlorobenzoyl)-3-[1-(methoxyimino)ethyl]-4-(2-methoxyphenyl)-L-phenylalanine] were 106.8 °C and 300 to 1000 nM.
